Data on 15 compounds can be found in patent US20090023721A1, “Novel Substituted Tetracyclic Tetrahydrofuran, Pyrrolidine and Tetrahydrothiophene Derivatives and Their Use as a Medicament” (priority 2005, published 2009).

One may read the pIC50 as −log10 of the IC50, conventionally taken in molar units.

Each structure is given as a SMILES string. pIC50: −log10 of the molar value. Where two headings read alike, the source gives them in different places. A value given as a limit tells only on which side of the number the result lay.

One test addresses T1, NET (Rattus norvegicus, UniProt Q9WTR4).
T1 construct: Cortex from rat brain was collected and homogenised; from tissue; host or cells: rat brain cortex membranes
As to the kind of experiment: In vitro determination of NET reuptake inhibition ([3H]Nixosetine binding, rat brain cortex membranes). Here is the method:
Cortex from rat brain was collected and homogenised using an Ultra-Turrax T25 and a Dual homogeniser in ice-cold homogenising buffer containing Tris, NaCl and KCl (50 mM, 120 mM and 5 mM, respectively, pH 7.4) prior to dilution to an appropriate protein concentration optimised for specific and non-specific binding. […] Membrane-bound activity was detected by filtration through a Packard Filtermate harvester onto GF/B Unifilterplates, washed with ice-cold Tris-HCl buffer, containing NaCl and KCl (50 mM, 120 mM and 4 mM; pH 7.4; 6×0.5 ml). Filters were allowed to dry for 24 h before adding scintillation fluid. Scintillation fluid was allowed to saturate filters for 24 h before counting in a Topcount scintillation counter. Percentage specific bound and competition binding curves were calculated using S-Plus software (Insightful).

In test [1] the target is T2, human cloned 5-HT2C receptor, expressed in CHO cells (Homo sapiens, UniProt P28335).
T2 construct: expressed in transfected cells; host or cells: CHO cells
T2 sequence (P28335 33-458): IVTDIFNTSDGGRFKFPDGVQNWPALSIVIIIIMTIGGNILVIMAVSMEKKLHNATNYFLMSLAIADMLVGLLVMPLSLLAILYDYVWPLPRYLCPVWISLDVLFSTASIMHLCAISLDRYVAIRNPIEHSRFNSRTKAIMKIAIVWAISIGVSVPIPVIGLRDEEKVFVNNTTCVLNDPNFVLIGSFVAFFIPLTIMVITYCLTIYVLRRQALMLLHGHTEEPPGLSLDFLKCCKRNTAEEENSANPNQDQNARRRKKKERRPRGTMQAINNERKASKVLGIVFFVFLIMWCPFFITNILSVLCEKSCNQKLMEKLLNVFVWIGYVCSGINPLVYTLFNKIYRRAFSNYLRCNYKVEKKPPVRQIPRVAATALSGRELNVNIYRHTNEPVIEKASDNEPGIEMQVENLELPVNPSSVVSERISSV
As to the kind of experiment: In vitro radioligand binding affinity for 5-HT2C receptor ([3H]mesulergine). As to conditions: for IC50: read-out: h-5HT2C (converted). As to the method:
The interaction of the compounds of Formula (I) with 5-HT2A and 5-HT2C receptors was assessed in in vitro radioligand binding experiments. […] During the incubation, the radioligands bind to the receptor. When equilibrium of binding is reached, the receptor bound radioactivity is separated from the non-bound radioactivity, and the receptor bound activity is counted. The interaction of the test compounds with the receptors is assessed in competition binding experiments. Various concentrations of the test compound are added to the incubation mixture containing the tissue preparation and the radioligand. Binding of the radioligand will be inhibited by the test compound in proportion to its binding affinity and its concentration.

For test [2], the target named is T3, human cloned 5-HT2A receptor, expressed in L929 cells (Homo sapiens, UniProt P28223).
T3 construct: expressed in transfected cells; host or cells: L929 cells
T3 sequence (P28223 whole entry): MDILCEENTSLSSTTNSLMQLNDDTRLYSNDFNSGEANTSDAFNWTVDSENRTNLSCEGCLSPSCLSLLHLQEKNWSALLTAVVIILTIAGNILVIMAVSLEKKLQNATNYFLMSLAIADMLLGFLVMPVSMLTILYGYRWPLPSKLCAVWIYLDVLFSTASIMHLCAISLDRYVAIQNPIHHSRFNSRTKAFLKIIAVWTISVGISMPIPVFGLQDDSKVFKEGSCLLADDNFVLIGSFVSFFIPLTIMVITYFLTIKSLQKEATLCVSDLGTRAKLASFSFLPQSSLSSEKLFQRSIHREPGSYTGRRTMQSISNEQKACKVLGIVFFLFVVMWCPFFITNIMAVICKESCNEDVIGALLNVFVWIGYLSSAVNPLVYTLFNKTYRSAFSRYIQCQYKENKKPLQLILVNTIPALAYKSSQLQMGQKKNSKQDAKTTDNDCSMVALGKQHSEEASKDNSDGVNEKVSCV
Nature of the test: In vitro radioligand binding affinity for 5-HT2A receptor ([125I]R91150). As to conditions: for IC50: read-out: h-5HT2A (converted). As to the method: The interaction of the compounds of Formula (I) with 5-HT2A and 5-HT2C receptors was assessed in in vitro radioligand binding experiments. In general, a low concentration of a radioligand with a high binding affinity for the receptor is incubated with a sample of a tissue preparation enriched in a particular receptor (1 to 5 mg tissue) in a buffered medium (0.2 to 5 ml). During the incubation, the radioligands bind to the receptor. When equilibrium of binding is reached, the receptor bound radioactivity is separated from the non-bound radioactivity, and the receptor bound activity is counted. The interaction of the test compounds with the receptors is assessed in competition binding experiments. Various concentrations of the test compound are added to the incubation mixture containing the tissue preparation and the radioligand. Binding of the radioligand will be inhibited by the test compound in proportion to its binding affinity and its concentration. The affinities of the compounds for the 5-HT2 receptors were measured by means of radioligand binding studies conducted with: (a) human cloned 5-HT2A receptor, expressed in L929 cells using [^125I]R91150 as radioligand and (b) human cloned 5-HT2C receptor, expressed in CHO cells using [^3H]mesulergine as radioligand.

Test [3] deals with T4, human Dopamine D2L receptor (Homo sapiens, UniProt P14416).
T4 construct: expressed in transfected cells; host or cells: CHO cells (frozen membranes)
T4 sequence (P14416 whole entry): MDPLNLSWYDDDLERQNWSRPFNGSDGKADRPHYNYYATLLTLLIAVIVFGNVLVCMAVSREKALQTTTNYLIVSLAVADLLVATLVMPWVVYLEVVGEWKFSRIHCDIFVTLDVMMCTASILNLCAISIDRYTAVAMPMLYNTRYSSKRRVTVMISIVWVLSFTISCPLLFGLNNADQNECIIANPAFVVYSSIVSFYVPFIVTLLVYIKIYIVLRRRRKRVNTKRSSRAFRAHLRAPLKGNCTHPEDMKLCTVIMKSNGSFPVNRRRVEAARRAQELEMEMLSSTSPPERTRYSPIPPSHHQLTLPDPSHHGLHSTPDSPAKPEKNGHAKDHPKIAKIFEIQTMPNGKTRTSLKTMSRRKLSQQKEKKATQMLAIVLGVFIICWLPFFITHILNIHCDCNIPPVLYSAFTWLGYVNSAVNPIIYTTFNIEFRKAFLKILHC
Nature of the test: In vitro binding affinity for human D2L receptor ([3H]Spiperone). As to conditions: human D2L receptor-transfected CHO cell membranes, [3H]Spiperone; for IC50: read-out: h-D2L (converted). Here is the method: Frozen membranes of human Dopamine D2L receptor-transfected CHO cells were thawed, briefly homogenised using an Ultra-Turrax T25 homogeniser and diluted in Tris-HCl assay buffer containing NaCl, CaCl2, MgCl2, KCl (50, 120, 2, 1, and 5 mM respectively, adjusted to pH 7.7 with HCl) to an appropriate protein concentration optimised for specific and non-specific binding. Radioligand [^3H]Spiperone (NEN, specific activity ˜70 Ci/mmol) was diluted in assay buffer at a concentration of 2 nmol/L. Prepared radioligand (50 μl), along with 50 μl of either the 10% DMSO control, Butaclamol (10-6 mol/l final concentration), or compound of interest, was then incubated (30 min, 37° C.) with 400 μl of the prepared membrane solution. Membrane-bound activity was filtered through a Packard Filtermate harvester onto GF/B Unifilterplates and washed with ice-cold Tris-HCl buffer (50 mM; pH 7.7; 6×0.5 ml). Filters were allowed to dry before adding scintillation fluid and counting in a Topcount scintillation counter. Percentage specific bound and competition binding curves were calculated using S-Plus software (Insightful).

Setting [4] is: human cloned 5-HT2C receptor in CHO cells, [3H]mesulergine.
The mark [5] stands for this setting: human cloned 5-HT2A receptor in L929 cells, [125I]R91150.

T1 sequence (Q9WTR4 1-597): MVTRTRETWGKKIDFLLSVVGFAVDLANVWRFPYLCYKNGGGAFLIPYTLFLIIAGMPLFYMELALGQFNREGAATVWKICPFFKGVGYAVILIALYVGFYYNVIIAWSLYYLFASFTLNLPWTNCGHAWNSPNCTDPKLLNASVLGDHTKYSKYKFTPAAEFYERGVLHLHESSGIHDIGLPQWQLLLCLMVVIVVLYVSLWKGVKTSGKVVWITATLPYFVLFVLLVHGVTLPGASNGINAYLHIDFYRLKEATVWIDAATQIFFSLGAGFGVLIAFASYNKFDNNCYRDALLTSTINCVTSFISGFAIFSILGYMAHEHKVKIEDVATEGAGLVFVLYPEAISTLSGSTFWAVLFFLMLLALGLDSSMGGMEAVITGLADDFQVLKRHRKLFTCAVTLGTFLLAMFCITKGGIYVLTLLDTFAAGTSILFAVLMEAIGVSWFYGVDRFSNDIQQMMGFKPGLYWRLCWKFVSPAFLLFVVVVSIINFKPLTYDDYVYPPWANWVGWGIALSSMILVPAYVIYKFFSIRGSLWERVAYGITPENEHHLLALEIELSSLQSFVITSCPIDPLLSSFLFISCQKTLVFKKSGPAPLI

Turning to `CN(C)CC1CO[C@@H]2c3cc(F)ccc3Cc3ccccc3[C@@H]12` (mixture of isomers) [compound 47, [(3aR,12bS)-11-fluoro-3,3a,8,12b-tetrahydro-2H-dibenzo[3,4:6,7]cyclohepta[1,2-b]-furan-3-yl]-N,N-dimethylmethanamine], the pIC50 on NET is 7.96. The IC50 was 1580 nM in test [1] (setting [4]) and 3800 nM in test [2] (setting [5]).

As to `CN(C)CC1CO[C@H]2c3cc(F)ccc3Cc3ccccc3[C@@H]12` (mixture of isomers) [compound 48, [(3aR,12bR)-11-fluoro-3,3a,8,12b-tetrahydro-2H-dibenzo[3,4:6,7]cyclohepta[1,2-b]-furan-3-yl]-N,N-dimethylmethanamine], the pIC50 on NET is 6.65. Besides, the IC50 was 3020 nM in test [1] (setting [4]) and 6170 nM in test [2] (setting [5]).

Compound `CN[C@@H]1CO[C@@H]2c3cc(F)ccc3Cc3ccccc3[C@H]2C1` (relative stereo) [compound 35, (3S*,4aR*,13bS*)-12-fluoro-N-methyl-2,3,4,4a,9,13b-hexahydrodibenzo[3,4:6,7]-cyclohepta[1,2-b]pyran-3-amine] had a pIC50 at NET of less than 6.00. Further, the IC50 in test [1] (setting [4]) was 2630 nM.

Consider `OCCN1CCN(C[C@H]2C[C@@H]3c4ccccc4Cc4ccc(F)cc4[C@H]3N2)CC1` [43a, 2-(4-{[(2R,3aR,12bS)-11-fluoro-1,2,3,3a,8,12b-hexahydrodibenzo[3,4:6,7]cyclohepta-[1,2-b]pyrrol-2-yl]methyl}-1-piperazinyl)ethanol], for which the pIC50 on NET is less than 5.00. The IC50 in test [1] (setting [4]) is 407 nM; in test [2] (setting [5]), 427 nM.

On to `CN(CCO)C[C@H]1C[C@@H]2c3ccccc3Cc3ccc(F)cc3[C@H]2N1` [43b, 2-[{[(2R,3aR,12bS)-11-fluoro-1,2,3,3a,8,12b-exahydrodibenzo[3,4:6,7]cyclohepta[1,2-b]pyrrol-2-yl]methyl}(methyl)amino]-ethanol], for which, in test [3], the h-D2L was 6.36. Further, the h-5HT2C in test [1] (setting [4]) is 7.05. This compound also registered a h-5HT2A in test [2] (setting [5]) of 7.17.

As to `CN(C)C[C@H]1C[C@@H]2c3ccccc3Cc3ccc(F)cc3[C@H]2N1C` [compound 5, [(2R,3aR,12bS)-11-fluoro-1-methyl-1,2,3,3a,8,12b-hexahydrodibenzo[3,4:6,7]cyclohepta[1,2-b]pyrrol-2-yl]-N,N-dimethylmethanamine], the IC50 in test [3] was 132 nM; in test [1] (setting [4]), 5.37 nM; in test [2] (setting [5]), 27.5 nM.

For `O=C1CNC[C@H]2C[C@@H]3c4ccccc4Cc4ccc(F)cc4[C@H]3N12` [compound 12, (5aS,14bR,15aR)-7-fluoro-1,2,3,5a,10,14b,15,15a-octahydro-4H-dibenzo[3′,4′:6′,7′]-cyclohepta[1′,2′:4,5]pyrrolo[1,2-a]pyrazin-4-one], the pIC50 on NET is 5.46; in test [1] it was 7.23. Also, the IC50 in test [3] was 832 nM.

For `CN1CC(=O)N2[C@H](C[C@@H]3c4ccccc4Cc4ccc(F)cc4[C@H]32)C1` [compound 13, (5aS,14bR,15aR)-7-fluoro-2-methyl-1,2,3,5a,10,14b,15,15a-octahydro-4H-dibenzo-[3′,4′:6′,7′]cyclohepta[1′,2′:4,5]pyrrolo[1,2-a]pyrazin-4-one], the “NET Reuptake Inhibition” value at NET is on record as less than 5. For the same compound, the pIC50 in test [2] is 7.06.

Regarding `OCCN1CCN(C[C@H]2C[C@@H]3c4ccccc4Oc4ccc(F)cc4[C@H]3N2)CC1` [compound 19, 2-(4-{[(2R,3aR,12bS)-11-fluoro-2,3,3a,12b-tetrahydro-1H-dibenzo[2,3 :6,7]oxepino-[4,5-b]pyrrol-2-yl]methyl}-1-piperazinyl)ethanol], the pIC50 at NET was less than 5.00. Also, the IC50 is 112 nM in test [3] and 4270 nM in test [1] (setting [4]).

Take `OC1CCN(C[C@H]2C[C@@H]3c4ccccc4Oc4ccc(F)cc4[C@H]3N2)C1` (stereo partly drawn) [compound 20, 1-{[(2R,3aR,12bS)-11-fluoro-2,3,3a,12b-tetrahydro-1H-dibenzo[2,3:6,7]oxepino[4,5-b]pyrrol-2-yl]methyl}-3-pyrrolidinol]: the pIC50 on NET is 6.38. Besides, the IC50 in test [3] was 355 nM; in test [1] (setting [4]), 110 nM.

On to `CN(C)C[C@@H]1C[C@@H]2c3ccccc3Cc3ccc(F)cc3[C@H]2S1(=O)=O` [compound 22, [(2S,3aR,12bS)-11-fluoro-1,1-dioxido-3,3a,8, 12b-tetrahydro-2H-dibenzo[3,4:6,7]-cyclohepta[1,2-b]thien-2-yl]-N,N-dimethylmethanamine], for which the pIC50 on NET was 5.32. Also, the figures for the IC50 in test [1] (setting [4]) and in test [2] (setting [5]) were 1350 nM and 8510 nM, respectively.

Compound `CN(C)C[C@@H]1C[C@@H]2c3ccccc3Cc3ccc(F)cc3[C@H]2[S@+]1[O-]` [compound 25, [(2S,3aR,12bS)-11-fluoro-1-oxido-3,3a,8,12b-tetrahydro-2H-dibenzo[3,4:6,7]cyclohepta[1,2-b]thien-2-yl]-N,N-dimethylmethanamine] gave a pIC50 at NET of 5.54. Also, the IC50 was 2240 nM in test [1] (setting [4]) and more than 10000 nM in test [2] (setting [5]).

Compound `CN(C)C[C@H]1C[C@@H]2c3ccccc3Cc3ccc(F)cc3[C@H]2[S@+]1[O-]` [compound 28, [(2R,3aR,12bS)-11-fluoro-1-oxido-3,3a,8,12b-tetrahydro-2H-dibenzo[3,4:6,7]cyclohepta[1,2-b]thien-2-yl]-N,N-dimethylmethanamine] had a pIC50 on NET of 6.84. Also, the values for the IC50 in test [1] (setting [4]) and in test [2] (setting [5]) were 1780 nM and 7760 nM, respectively.

As to `Fc1ccc2c(c1)[C@H]1N[C@@H](CN3CCOCC3)C[C@@H]1c1ccccc1C2` [compound 42, (2R,3aR,12bS)-11-fluoro-2-(4-morpholinylmethyl)-1,2,3,3a,8,12b-hexahydrodibenzo-[3,4:6,7]cyclohepta[1,2-b]pyrrole], the pIC50 at NET is 5.26. Moreover, the IC50 in test [1] (setting [4]) is 550 nM; in test [2] (setting [5]), 631 nM.

`COC(=O)N1[C@@H](CN(C)C)CC[C@@H]2c3ccccc3Cc3ccc(F)cc3[C@H]21` [compound 45, Methyl (2R,4aR,13bS)-2-[(dimethylamino)methyl]-12-fluoro-2,3,4,4a,9,13b-hexahydro-1H-dibenzo[3,4:6,7]cyclohepta[1,2-b]pyridine-1-carboxylate] gave a pIC50 on NET of 6.10. In addition, the IC50 in test [3] was more than 10000 nM; in test [1] (setting [4]), 2240 nM.
